Test results as given in PubChem BioAssay (NCI).
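Cells were grown in 96-well plates and exposed to each compound for 48 hours at five concentrations; endpoints were interpolated linearly between bracketing concentrations, or set to the highest concentration if not reached. Definition used: TGI = concentration required for complete inhibition of growth.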

Key:
Test in all cases: inhibition of tumour cell growth, NCI panel, 48 h
[1] = tested on: PC-3 prostate
[2] = tested on: IGROV1 ovarian
[3] = tested on: MALME-3M melanoma
[4] = tested on: SF-295 CNS
[5] = tested on: SN12C renal
[6] = tested on: 786-0 renal
[7] = tested on: HS 578T breast
[8] = tested on: UACC-62 melanoma
[9] = tested on: TK-10 renal
[10] = tested on: T-47D breast
[11] = tested on: OVCAR-3 ovarian
[12] = tested on: SW-620 colon
[13] = tested on: U251 CNS
[14] = tested on: UACC-257 melanoma
[15] = tested on: A498 renal

CCCC(=O)n1[nH]c(=O)n(C(C)(C)C)c1=O
TGI [1]: > 100 µM | TGI [2]: > 100 µM | TGI [3]: > 100 µM | TGI [4]: > 100 µM | TGI [5]: > 100 µM | TGI [6]: > 100 µM | TGI [7]: > 100 µM | TGI [8]: > 100 µM | TGI [9]: > 100 µM | TGI [10]: > 100 µM | TGI [11]: > 100 µM | TGI [12]: > 100 µM | TGI [13]: > 100 µM | TGI [14]: > 100 µM

CNC(=O)C1CCC(=O)N1CN(C(C)=O)c1ccccc1 (stereo not given)
TGI [1]: > 100 µM | TGI [2]: > 100 µM | TGI [3]: > 100 µM | TGI [4]: > 100 µM | TGI [5]: > 100 µM | TGI [15]: > 100 µM | TGI [6]: > 100 µM | TGI [7]: > 100 µM | TGI [8]: > 100 µM | TGI [9]: > 100 µM | TGI [10]: > 100 µM | TGI [11]: > 100 µM | TGI [12]: > 100 µM | TGI [13]: > 100 µM | TGI [14]: > 100 µM

c1ccc2c(c1)ncn2CCn1ccnc1
TGI [1]: > 100 µM | TGI [2]: > 100 µM | TGI [3]: > 100 µM | TGI [4]: > 100 µM | TGI [5]: > 100 µM | TGI [15]: > 100 µM | TGI [6]: > 100 µM | TGI [7]: > 100 µM | TGI [8]: > 100 µM | TGI [9]: > 100 µM | TGI [10]: > 100 µM | TGI [11]: > 100 µM | TGI [12]: > 100 µM | TGI [13]: > 100 µM

Cc1ccccc1C(=O)NC(O)(C(F)(F)F)C(F)(F)F
TGI [1]: > 100 µM | TGI [2]: > 100 µM | TGI [3]: > 100 µM | TGI [4]: > 100 µM | TGI [5]: > 100 µM | TGI [15]: > 100 µM | TGI [6]: > 100 µM | TGI [7]: > 100 µM | TGI [9]: > 100 µM | TGI [10]: > 100 µM | TGI [11]: > 100 µM | TGI [12]: > 100 µM | TGI [13]: > 100 µM | TGI [14]: > 100 µM

Cc1ccc(O)c(-c2cc(-c3ccccc3)nc(/N=C\c3ccccc3)n2)c1
TGI [1]: > 100 µM | TGI [2]: 44 µM | TGI [3]: > 100 µM | TGI [4]: > 100 µM | TGI [5]: > 100 µM | TGI [6]: > 100 µM | TGI [7]: 79.8 µM | TGI [8]: 48.6 µM | TGI [9]: > 100 µM | TGI [10]: > 100 µM | TGI [11]: > 100 µM | TGI [12]: > 100 µM | TGI [13]: > 100 µM | TGI [14]: > 100 µM

CC(=O)N1N=C(c2ccc3ccccc3c2O)CC1c1ccc(Cl)cc1Cl (stereo not given)
TGI [1]: > 100 µM | TGI [2]: > 100 µM | TGI [3]: > 100 µM | TGI [4]: > 100 µM | TGI [5]: > 100 µM | TGI [15]: > 100 µM | TGI [6]: > 100 µM | TGI [7]: > 100 µM | TGI [8]: > 100 µM | TGI [9]: > 100 µM | TGI [10]: > 100 µM | TGI [11]: > 100 µM | TGI [12]: > 100 µM | TGI [13]: > 100 µM | TGI [14]: > 100 µM

CN(C)C=NCc1ccc2c(c1)OCO2
TGI [1]: > 100 µM | TGI [2]: > 100 µM | TGI [3]: > 100 µM | TGI [4]: > 100 µM | TGI [5]: > 100 µM | TGI [15]: > 100 µM | TGI [6]: > 100 µM | TGI [7]: > 100 µM | TGI [8]: > 100 µM | TGI [9]: > 100 µM | TGI [10]: > 100 µM | TGI [11]: > 100 µM | TGI [12]: > 100 µM | TGI [13]: > 100 µM | TGI [14]: > 100 µM

c1ccc(N=C2C(=Nc3ccccc3)N(C3CCCCC3)C(=NC3CCCCC3)N2c2ccccc2)cc1
TGI [1]: > 100 µM | TGI [2]: > 100 µM | TGI [3]: > 100 µM | TGI [15]: > 100 µM | TGI [6]: > 100 µM | TGI [7]: > 100 µM | TGI [9]: > 100 µM | TGI [10]: > 100 µM | TGI [12]: > 100 µM | TGI [13]: > 100 µM | TGI [14]: > 100 µM

[O-]/N=N\c1on[n+](CCc2ccccc2)c1Cc1c(/N=N/[O-])on[n+]1CCc1ccccc1
TGI [1]: > 100 µM | TGI [2]: 70 µM | TGI [3]: 66.6 µM | TGI [4]: 74.2 µM | TGI [5]: > 100 µM | TGI [15]: > 100 µM | TGI [6]: 47.5 µM | TGI [7]: 62.2 µM | TGI [8]: > 100 µM | TGI [9]: 56.2 µM | TGI [10]: > 100 µM | TGI [11]: 39.8 µM | TGI [12]: > 100 µM | TGI [13]: 52.7 µM | TGI [14]: > 100 µM

Cc1ccc(N(C)S(=O)(=O)c2ccccc2)cc1
TGI [1]: > 100 µM | TGI [2]: > 100 µM | TGI [3]: > 100 µM | TGI [4]: > 100 µM | TGI [5]: > 100 µM | TGI [6]: > 100 µM | TGI [7]: > 100 µM | TGI [8]: > 100 µM | TGI [9]: > 100 µM | TGI [10]: > 100 µM | TGI [11]: > 100 µM | TGI [12]: > 100 µM | TGI [13]: > 100 µM | TGI [14]: > 100 µM

Nc1nc(Cl)cc(NCC2(CO)CC(c3ccccc3)C2)n1 (stereo not given)
TGI [1]: > 100 µM | TGI [2]: > 100 µM | TGI [3]: > 100 µM | TGI [4]: > 100 µM | TGI [5]: > 100 µM | TGI [15]: > 100 µM | TGI [6]: > 100 µM | TGI [7]: 83.8 µM | TGI [8]: > 100 µM | TGI [9]: > 100 µM | TGI [10]: > 100 µM | TGI [11]: > 100 µM | TGI [12]: > 100 µM | TGI [13]: > 100 µM | TGI [14]: > 100 µM

c1ccc2c(c1)ccc1nc3ccccn3c12
TGI [1]: > 100 µM | TGI [2]: > 100 µM | TGI [3]: > 100 µM | TGI [4]: > 100 µM | TGI [5]: > 100 µM | TGI [6]: > 100 µM | TGI [7]: > 100 µM | TGI [8]: > 100 µM | TGI [9]: > 100 µM | TGI [10]: > 100 µM | TGI [11]: > 100 µM | TGI [12]: > 100 µM | TGI [13]: > 100 µM | TGI [14]: > 100 µM
